Experimental data published in patent US6846937B2, “Method for the selective removal of acyl-functionality attached to the 2'-hydroxy-group of paclitaxel-related derivatives” (The University of Toledo, priority 2001, dated 2005).
Values belong to the compound of their own block, whether it stands above or below them.

Columns and labels:
[1] = Alcoholysis of 2′-acyl group followed by analytical HPLC (Examples 1-4); type: physicochemical
Source text: As part of research to better understand the interaction of PAC-related compounds with various components within cancer cells,^11,12 the inventors deployed CAC protection of both PAC and 10-deacetylpaclitaxel (DAP) (FIG. 4). During purification of various mixtures of the three predominate CAC derivatives obtained for DAP, namely the 2′-mono-, the 2′,7-bis- and the 2′,7,10-tri-CAC protected materials, the 2′-adducts appeared to be unstable when allowed to stand for prolonged periods in methanol. Testing purified materials on a 1 mg scale confirmed this observation. Moving to a larger sample, a 40 mL solution of 2′,7-bis-CAC-DAP was then examined at a concentration of 1 mg/mL. Methanolysis of the 2′-adduct was complete after 48 hours at ambient temperature. The exclusive product was isolated by evaporation of solvent, washed with cold water, and its structure characterized as 7-mono-CAC-DAP according to NMR (FIG. 5-Table 2) and elemental analysis. […] In this case the structural integrity for the latter was additionally confirmed by its independent synthesis analogous to a literature procedure^4 wherein after treatment of PAC with chloroacetic anhydride in pyridine, the reaction mixture was subjected to 10 mM ammonia at room temperature for 1 hour prior to preparative HPLC separation of the resulting mixture of esters.
7-Monochloroacetyl-10-deactylpaclitaxel (7-CAC-DAP) (2). 2′,7-bis-CAC-DAP (1) (30 mg, 0.031 mmol) was dissolved in 40 mL of methanol (HPLC grade) and left at ambient temperature. 20 μL samples were withdrawn at several hour intervals and analyzed directly by HPLC. The conversion was complete in 48 hrs. Solvent was evaporated to dryness leaving a glossy residue which crystallized upon addition of water. Yield: 25 mg (0.028 mmol) having 97% purity by HPLC; mp 163-166° C.; Analytical HPLC RT=24 min. (Discovery column); Elemental Analysis calculated for formula C47H50ClNO14: C, 63.55%; H, 5.67%; N, 1.58%. Found: C, 63.08%; H, 5.97%; N, 1.63%.
7-Monochloroacetylpaclitaxel (7-CAC-PAC) (4). 1 mg of 2′,7-bis-CAC-PAC (3) was dissolved in 1 mL of methanol and the solution left at ambient temperature. 20 μL samples were withdrawn at several hour intervals and directly analyzed by HPLC. The conversion was complete in 48 hours. […] (Discovery column); Elemental Analysis calculated for formula C49H52Cl NO15: C, 63.26%; H, 5.63%; N, 1.51%. […]
7-Methoxyacetylpaclitaxel (7-MAC-PAC) (5). […] Samples (20 μl) were withdrawn at several hour intervals and analyzed directly by HPLC. […] (Suplecosil column); Elemental analysis calculated for C50 H55 NO16.H2O: C, 63.36%; H, 6.09%; N, 1.48%. […]

[2] = Stability of PAC and DAP CAC analogs in methanol at ambient temperature (HPLC decay curve); type: physicochemical
Description: During development of an HPLC method to purify 2′,7-bis-monochloroacetyl-10-deacetylpaclitaxel (2′,7-bis-CAC-DAP), the inventors discovered that the compound was unstable in methanol solution at a concentration of 1 mg/ml. […] Thus, we decided to further investigate the apparent differences in the stability of several PAC and DAP CAC esters relative to concentration and acidity.
Compound abbreviations are provided in FIG. 2-Table 1 according to the nomenclature and numbering specified in FIG. 1. RT=Retention times on an analytical HPLC (Waters) equipped with a reversed-phase column (Supleco Discovery C18) using a gradient elution (60% acetonitrile from 0-2 min., linearly ramped from 60% to 75% from 2-12 min., and held steady at 75% for the duration of the assay) at a flow rate of 1.2 ml/min. monitored by UV detection (225 nm). NMR (CDCl3) values for the C2′ proton shifts are in ppm relative to TMS. T1/2=Apparent half-lives. All compounds were independently prepared and characterized by HPLC, NMR and elemental analyses. ^†Previously reported by Rao et al. ^††Previously reported by Rimoldi et al.^21 *Less than 5% breakdown after 72 hr.
A 1 mg/ml solution of 2′,7-bis-CAC-DAP in methanol was allowed to stand at ambient temperature. 20 μl samples were withdrawn at T=0, 2, 24 and 48 hrs. Longer incubations were deployed for compounds showing little breakdown. Aliquots were assayed directly by HPLC after establishing that responses obtained for serial dilutions of a freshly prepared 10 mg/ml stock solution of 2′,7-bis-CAC-DAP were linear throughout the concentration range anticipated for the samples. A decay curve was generated by following the decrease in compound peak area versus time. An apparent half-life (T1/2) was then calculated from a semi-log plot using Microsoft Excel. The decay curve for 2′,7-bis-CAC-DAP appears to follow pseudo first-order kinetics typical for solvolysis reactions. The T1/2 value for conversion to 7-CAC-DAP is 5.5 hrs. The product growth curve matches very closely with the compound decay curve. Similar results were obtained for all of the other 2′-chloroacetylated derivatives listed in FIG. 2-Table 1 except for 2′ CAC-DAP whose T1/2 appears to be about three-times longer (18 hrs.). Nevertheless, this derivative is still much more labile than the chloroacetyl esters placed at either the 7- or 10-positions (T1/2 values all >>72 hrs.).
For the more concentrated experiments, a 10 mg/ml solution of 2′,7-bis-CAC-DAP was allowed to stand at ambient temperature. […] For the weakly acidic studies, less than 4% breakdown of 2′,7-bis-CAC-DAP was observed over 48 hrs. and the calculated T1/2 was determined to be >1,000 hrs. […]

- Conversion (loss of 2′-acyl group) ([1]; 80% ethanol/20% water, 56° C., 24 hours): Approximately 50%
- Conversion (loss of 2′-acyl group) ([1]; 80% ethanol/20% water, ambient temp., 22 hours): Approximately 20%
- Time to complete methanolysis of the 2′-adduct ([1]; about 1 mg/mL in methanol, ambient temperature): 48 h
- Breakdown ([2]; 1 mg/ml in methanol with 0.2% acetic acid, over 48 hrs.): less than 4%
- Solvolysis in more concentrated methanolic solution ([2]; 20 mg/ml, for preparative HPLC): did not appear to undergo solvolysis
- Stability in methanol solution ([2]; concentration of 1 mg/ml): unstable
SMILES: CC(=O)O[C@@]12CO[C@@H]1C[C@H](OC(=O)CCl)[C@@]1(C)C(=O)[C@H](O)C3=C(C)[C@@H](OC(=O)[C@H](OC(=O)CCl)[C@@H](NC(=O)c4ccccc4)c4ccccc4)C[C@@](O)([C@@H](OC(=O)c4ccccc4)[C@H]21)C3(C)C [2′,7-bis-CAC-DAP, 2′,7-bis-Monochloroacetyl-10-deacetylpaclitaxel]

- Conversion (loss of 2′-acyl group) ([1]; 30 mg in 60 ml methanol, 47° C., within 7 hours): ~90%
SMILES: COCC(=O)O[C@H]1C[C@H]2OC[C@@]2(OC(C)=O)[C@H]2[C@H](OC(=O)c3ccccc3)[C@]3(O)C[C@H](OC(=O)[C@H](OC(=O)COC)[C@@H](NC(=O)c4ccccc4)c4ccccc4)C(C)=C([C@@H](OC(C)=O)C(=O)[C@]12C)C3(C)C [2′,7-bis-MAC-PAC]

- Breakdown to DAP ([2]; methanol, studied for up to 120 hrs.): no significant breakdown
SMILES: CC(=O)OC12COC1CC(OC(=O)CCl)C1(C)C(=O)C(O)C3=C(C)C(OC(=O)C(O)C(NC(=O)c4ccccc4)c4ccccc4)CC(O)(C(OC(=O)c4ccccc4)C21)C3(C)C (centres unmarked) [Compound 7-CAC-DAP, 7-Monochloroacetyl-10-deactylpaclitaxel]
